{
  "source": "paper PMC7570921",
  "about": "“Cathepsin B-Cleavable Cyclopeptidic Chemotherapeutic Prodrugs” (Molecules, 2020)",
  "key": {"HT1080 cells [1]": {"system": "HT1080 cells", "experiment": "Confocal fluorescence microscopy, co-localization (PCC) of DOX fluorescence", "format": "cell-based, human", "conditions": "24 h incubation, 0.3 μM free DOX; mean ± SD of three images", "method": "HT1080 cells were seeded one day before the experiment at a density of 78,500 cells in 1.3 mL of complete medium into a glass-bottom microwell dish (35 mm petri dish, 14 mm microwell, MatTek Corporation). […] Control cells were incubated in serum-free medium under the same experimental conditions. Cells were then washed with DPBS and incubated for 20 min with 1 μg/mL Hoechst 33,342 stain and 70 nM of LysoTracker® Green DND-26. Prior to imaging, cells were washed with DPBS and serum-free medium was put into every dish. Fluorescence imaging was carried our using a Zeiss LSM780 (Zeiss, Jena, Germany) inverted confocal microscope. The microscopic images were using 405 and 488 nm lasers as excitation wavelengths, 495–525, 575–625 and 415–492 nm emission filters, and an objective lens, Plan-Aprochromat 63 x/1.4 oil DIC M27. During the image acquisition time, slides were kept at 37 °C in a humidified chamber (INUBTF-WSKM-F1, Tokai Hit, Japan). ZEN 2 software (Zeiss, Jena, Germany) was used for image processing. […] […] PCC was calculated in regions of interest (ROI), separately defined for each image by masking the entire dataset with the red channel (DOX fluorescence). The value of PCC for each experiment is presented as mean ± S.D. calculated from three separate images."}, "HT1080 cells [2]": {"system": "HT1080 cells", "experiment": "Flow cytometry of intracellular and nuclear DOX accumulation", "format": "cell-based, human", "conditions": "24 h, 0.3 μM (DOX eq), isolated nuclei, triplicates", "method": "(§1) HT1080 cells were seeded in 6-well plates (flat-bottom cell culture microplate, 3505, Corning, Luzern, Switzerland) at a density of 150,000 cells/well and were left to attach overnight. […] Cells were incubated for 24, 48 and 72 h in the dark at 37 °C. Cells were washed 3 times with DPBS, detached from the surface with a cell-scraper and resuspended in 500 μL of DPBS. Cells were analyzed immediately on a BD LSR Fortessa cell analyzer (BD Biosciences, San Jose, CA, USA). […] For this purpose, 1 mM Tris buffer was prepared and the pH was adapted to 7.6 with 30% HCl. Igepal CA-630 and Hoechst 3342 (5 μg/mL final concentration) were added, and the reagent was filtered. […] Samples were incubated at 4 °C for 1 h and analyzed with a BDLSR Fortessa cell analyzer. Acquisition data were analyzed using FlowJo V10 software (FLOWJO, LCC, Ashland, OR, USA). For cell cycle analysis, the Dean-Jett-Fox model was used. All measurements were done in triplicates. Mean values and S.D. were calculated and plotted for each tested compound. Fluorescence of control cells incubated in serum-free medium was subtracted from acquired DOX-emitted fluorescence."}, "[3]": {"system": "HT1080 human fibrosarcoma cells", "experiment": "WST-1 cell proliferation / cytotoxicity assay", "format": "cell-based", "conditions": "for Survival Rate (SR) / Cytotoxicity (in words): HT1080, 72 h; for Cytotoxicity (in words): WST-1, 5-50 μM DOX eq (Figure S14), n = 3", "method": "Human fibrosarcoma cell line HT1080 (ATCC® CCL-121™, Manassas, VA, USA) was grown as monolayers in DMEM (1x) + GlutaMAX™-1 medium supplemented with 10% fetal calf serum and […] streptomycin and 100 IU/mL penicillin. Cells were cultivated at 37 °C in humidified 95% air and 5% CO2 atmosphere and routinely maintained by serial passage in a new medium. Prior to experiments, cells were tested for mycoplasma contamination with the MycoAlert™ kit.\nCells were seeded at a density of 8000 cells/well in a 96-well plate (clear-bottom black plate, 3603, Corning, Luzern, Switzerland) one day prior to the experiment. […] Cell proliferation assays were performed at 72 h upon incubation using a Cell Proliferation reagent (WST-1) following the manufacturer’s recommendations. The absorption was measured at 450 nm with a plate reader (Safire). The percentage of cell survival was calculated with respect to control samples treated with either medium or a solution of DMSO (50%) in serum-free medium, as follows: [A (test-conc.) − A (100% dead)/A (100% viable) − A (100% dead)] × 100. Mean values from three wells were determined and expressed as ± S.D. All assays were done in triplicates."}, "HT1080 cells [4]": {"system": "HT1080 cells", "experiment": "Cell cycle analysis by flow cytometry (Hoechst 33342, Dean-Jett-Fox model)", "format": "cell-based, human", "method": "as §1, with “compound.” for “compound. Fluorescence of control cells incubated in serum-free medium was subtracted from acquired DOX-emitted fluorescence.”"}, "[5]": {"conditions": "24 h, 0.3 μM (DOX eq), mean ± S.D., n = 3"}, "[6]": {"conditions": "48 hours, equimolar concentration (DOX eq)"}, "[7]": {"conditions": "72 hours, equimolar concentration (DOX eq)"}},
  "note": "Starred links: 1 amine or outer side, 2 acyl side, 3 side chain; linkers in the order of their positions; H or OH if unused. Residues, ends and D or L forms follow the SMILES beside them. *: point of attachment. Doxorubicin(3'-N) = COc1cccc2c1C(=O)c1c(O)c3c(c(O)c1C2=O)C[C@@](O)(C(=O)CO)C[C@@H]3O[C@H]1C[C@H](N*)[C@H](O)[C@H](C)O1; DBCO = C1#Cc2ccccc2N(*)Cc2ccccc21; Suc = O=C(CCC(=O)[*:2])[*:1]",
  "data": [
    {"molecule": "COc1cccc2c1C(=O)c1c(O)c3c(c(O)c1C2=O)C[C@@](O)(C(=O)CO)C[C@@H]3O[C@H]1C[C@H](N)[C@H](O)[C@H](C)O1.Cl", "note": "[DOX, Doxorubicin hydrochloride salt]", "values": [
      {"measurement": "PCC between DOX and Hoechst 33342", "setting": "HT1080 cells [1]", "value": "0.41 ± 0.10"},
      {"measurement": "DOX accumulation in the nucleus", "setting": "HT1080 cells [2]", "value": "significant DOX accumulation in the nucleus"},
      {"measurement": "Survival Rate (SR)", "setting": "[3]; WST-1, [Dox] 0.01 mM as printed, SD 9.7 wrapped", "value": 86.4, "unit": "%"},
      {"measurement": "Survival Rate (SR)", "setting": "[3]; WST-1, [Dox] 0.05 mM as printed, SD 10.6 wrapped", "value": 81.7, "unit": "%"},
      {"measurement": "Survival Rate (SR)", "setting": "[3]; WST-1, [Dox] 0.10 mM as printed, SD 9.7 wrapped", "value": 69.9, "unit": "%"},
      {"measurement": "Survival Rate (SR)", "setting": "[3]; WST-1, [Dox] 0.15 mM as printed, SD 7.3 wrapped", "value": 53.7, "unit": "%"},
      {"measurement": "Survival Rate (SR)", "setting": "[3]; WST-1, [Dox] 0.2 mM as printed, SD 4.7 wrapped", "value": 34.6, "unit": "%"},
      {"measurement": "Survival Rate (SR)", "setting": "[3]; WST-1, [Dox] 0.4 mM as printed, SD 1.3 wrapped", "value": 6.9, "unit": "%"},
      {"measurement": "Survival Rate (SR)", "setting": "[3]; WST-1, [Dox] 0.5 mM as printed, SD 0.4 wrapped", "value": 1.3, "unit": "%"},
      {"measurement": "Survival Rate (SR)", "setting": "[3]; WST-1, [Dox] 0.6 mM as printed, SD 0.5 wrapped", "value": 0.4, "unit": "%"},
      {"measurement": "Survival Rate (SR)", "setting": "[3]; WST-1, [Dox] 0.8 mM as printed, SD 0.7 wrapped", "value": 0, "unit": "%"},
      {"measurement": "Survival Rate (SR)", "setting": "[3]; WST-1, [Dox] 1.0 mM as printed, SD 0.5 wrapped", "value": 0.4, "unit": "%"},
      {"measurement": "IC50", "setting": "[3]; HT1080, 72 h incubation, WST-1, free DOX (data not shown)", "value": 160, "unit": "nM"},
      {"measurement": "% G1", "setting": "HT1080 cells [4]; [5]", "value": "30.4 ± 2.3", "unit": "%"},
      {"measurement": "% S", "setting": "HT1080 cells [4]; [5]", "value": "36.7 ± 11.9", "unit": "%"},
      {"measurement": "% G1", "setting": "HT1080 cells [4]; [6]", "value": "29.2 ± 1.5", "unit": "%"},
      {"measurement": "% G2", "setting": "HT1080 cells [4]; [6]", "value": "33.6 ± 5.7", "unit": "%"},
      {"measurement": "% S", "setting": "HT1080 cells [4]; [6]", "value": "32.3 ± 4.4", "unit": "%"},
      {"measurement": "% G1", "setting": "HT1080 cells [4]; [7]", "value": "32.6 ± 3.2", "unit": "%"},
      {"measurement": "% G2", "setting": "HT1080 cells [4]; [7]", "value": "27.3 ± 8.1", "unit": "%"},
      {"measurement": "% S", "setting": "HT1080 cells [4]; [7]", "value": "35.8 ± 6.7", "unit": "%"}
    ]},
    {"molecule": "COc1cccc2c1C(=O)c1c(O)c3c(c(O)c1C2=O)C[C@@](O)(C(=O)CO)C[C@@H]3O[C@H]1C[C@H](NC(=O)CNC(=O)[C@H](C)NC(=O)[C@H](C)NC(=O)[C@H](CCCNC(=N)N)NC(=O)[C@H](CCCNC(=N)N)NC(=O)CNC(=O)[C@H](C)NC(=O)CNC(=O)CCC(=O)N2Cc3ccccc3C#Cc3ccccc32)[C@H](O)[C@H](C)O1", "note": "({DBCO-Suc}-GAGRRAAG-{Doxorubicin(3'-N)})", "values": [
      {"measurement": "Cytotoxicity (in words)", "setting": "[3]", "value": "significant cytotoxicity"}
    ]},
    {"molecule": "PEG10-GAGRRAAG-DOX", "values": [
      {"measurement": "Cytotoxicity (in words)", "setting": "[3]", "value": "no cytotoxicity"}
    ]}
  ]
}
